Measured values from PMC11355700, “Antioxidant and Skin-Whitening Efficacy of a Novel Decapeptide (DP, [sequence]) Derived from Fish By-Products” (Marine Drugs, 2024).

What was measured:
MITF mRNA = assay: RT-PCR of MITF mRNA in α-MSH-stimulated B16F10 cells; assay type: cell-based, mouse; details: 0.1, 1, and 10 μM; α-MSH 200 nM; normalized to GAPDH
Description: (§1) B16F10 melanoma cells were obtained from the KCLB and cultured in DMEM medium supplemented with 10% FBS (Gibco BRL, Grand Island, NY, USA) and 1% penicillin. The cells were incubated in a humidified incubator at 37 °C and 5% CO2.
(§2) Total RNA was extracted using the High Pure RNA Isolation Kit (Invitrogen Co., Waltham, MA, USA) according to the manufacturer’s instructions and quantified using a NanoDrop (Thermo Scientific, Waltham, MA, USA). For the reverse transcription reaction, 1 μg of isolated RNA and 1 μL of oligo DT (100 pM) were combined with DEPC to a total volume of 11 μL, followed by the reverse transcription reaction using the RT Premix Kit (Bioneer Co., Daejeon, Republic of Korea) as per the manufacturer’s protocol. PCR for MITF, Tyrosinase, and MC1R genes was conducted using 2 μL of the cDNA products obtained from the reverse transcription reaction, with the PCR Premix Kit (Bioneer Co.) according to the manufacturer’s instructions. The cDNA products amplified by reverse transcription and polymerase chain reaction were analyzed by electrophoresis on 2.0% agarose gels containing ethidium bromide.

HaCaT cells [1] = assay: Cell viability (MTT) of H2O2-treated HaCaT cells; assay type: cell-based, human; details: DP 50, 100, 200 μM with H2O2 500 μM, 24 h, n = 3
Description: (§3) The cell line used in the experiment, the HaCaT cell line, a human keratinocyte, was purchased from the Korea Cell Line Bank (KCLB, Seoul, Republic of Korea). HaCaT cells were cultured in a DMEM medium supplemented with 10% FBS and 1% penicillin–streptomycin. The cells were subcultured every 2 to 3 days in an incubator maintained at 37 °C and 5% CO2.
To assess the cytotoxicity of DP and H2O2, cells (1 × 10^4 in a 96-well plate) were cultured at 37 °C and 5% CO2 for 24 h. The cultured cells were then treated with DP and H2O2. After 24 h of treatment, 10 μL of MTT (5 mg/mL) solution was added, and the cells were incubated for 4 h. Following this, the supernatant was removed, and 100 μL of DMSO was added to each well. The absorbance was measured at 550 nm using an ELISA reader.

mushroom tyrosinase = assay: Tyrosinase inhibitory activity (DOPA chrome formation); assay type: biochemical; details: DL-DOPA substrate, pH 6.8, 37 °C, 10 min, 475 nm
Description: The inhibitory activity of tyrosinase, which is involved in the key steps of melanin synthesis, was measured using a colorimetric method modified from Masamoto et al. by detecting the formation of DOPA chrome as a result of the enzyme’s action. As a substrate, a mixture containing 0.2 mL of 5 mM DL-DOPA solution, 0.2 mL of 0.1 M phosphate buffer (pH 6.8), and 0.5 mL of sample solution was prepared. To this mixture, 0.1 mL of mushroom tyrosinase (Sigma Co., 250 unit/mL) was added and incubated at 37 °C for 10 min. After incubation, the absorbance was measured at a wavelength of 475 nm to calculate the tyrosinase inhibitory activity.

B16F10 melanoma cells [2] = assay: Melanin content and morphology in α-MSH-induced B16F10 melanoma cells; assay type: cell-based, mouse; details: for Melanin content: α-MSH (200 nM) 24 h, α-MSH treated group 152.36%, 405 nm
Description: as §1
To measure melanin production in B16F10 cells, cells were seeded in 6-well plates at a density of 5 × 10^4 cells/well. After 24 h, the medium was replaced with fresh medium containing 2% FBS, 200 nM α-MSH, and various concentrations of DP. […] After incubation, the cells were washed with PBS, harvested by centrifugation, and the melanin content was visually inspected. The harvested cells were dissolved in 400 μL of 0.2 N NaOH solution and incubated at 60 °C for 1 h. The absorbance was measured at 405 nm using a microplate reader.

HaCaT cells [3] = assay: ROS generation (DCFH-DA) in H2O2-treated HaCaT cells; assay type: cell-based, human; details: DP 50, 100, 200 μM; H2O2 500 μM, 24 h; DCFH-DA 25 μM, 30 min; n = 3
Description: as §3
HaCaT cells were seeded at 1 × 10^4 cells per well in a 96-well black plate and cultured for 24 h. The cultured cells were treated with DP at concentrations of 50, 100, and 200 μM and then exposed to 500 μM H2O2 for 24 h to induce ROS generation. After H2O2 treatment, the cells were stained with 25 μM dichlorodihydro-fluorescein diacetate (DCFH-DA) for 30 min. The fluorescence intensity corresponding to intracellular ROS production was measured using a fluorescent spectrophotometer at an excitation wavelength of 485 nm and an emission wavelength of 530 nm. The results were expressed as ROS production (%) relative to the fluorescence measurement value of the untreated control, which was set to 100.

tyrosinase mRNA = assay: RT-PCR of tyrosinase mRNA in α-MSH-stimulated B16F10 cells; assay type: cell-based, mouse; details: 0.1, 1, and 10 μM; α-MSH 200 nM; normalized to GAPDH
Description: as §1, §2

[4] = Ferric reducing antioxidant power (FRAP); assay type: biochemical; details: FRAP reagent pH 3.6, 5 min, 37 °C, 593 nm, n = 3
Description: FRAP was measured using the method adapted from Benzie and Strain [46]. The FRAP reagent was prepared by mixing a 300 mM sodium acetate buffer (pH 3.6), a 10 mM 2,4,6-tripyridyl-s-triazine (TPTZ) solution dissolved in 40 mM HCl, and a 20 mM FeCl3 solution in a 10:1:1 ratio just before the experiment. A 10 μL sample of each concentration was mixed with 200 μL of FRAP reagent, incubated for 5 min at 37 °C, and then the absorbance was measured at 593 nm using a Microplate Spectrophotometer (xMarkTM, BIO-RAD, Hercules, CA, USA). The FRAP value of the sample was determined by applying the absorbance values to a standard calibration curve prepared with 0–5 mM FeSO4·H2O, and the results were expressed as FeSO4 equivalent mM/μM.

B16F10 melanoma cells [5] = assay: Cytotoxicity (MTT) in B16F10 melanoma cells; assay type: cell-based, mouse; details: 12.5, 50, and 100 μM, 24 h
Description: as §1
To determine the cytotoxicity of DP and establish the concentration range for the experiment, an MTT assay was conducted. Cells were seeded in 96-well plates at a density of 1.0 × 10^4 cells/well. After 24 h, once the cells were fully attached, the medium was replaced with fresh medium containing 200 nM α-MSH and various concentrations of DP. After another 24 h of incubation, an MTT assay was performed.

[6] = ABTS radical scavenging activity; assay type: biochemical; details: n = 3
Description: The ABTS radical scavenging activity of C. notate head hydrolysate was determined by an adaptation of the ABTS radical cation decolorization assay of Re et al.. A 7 mM ABTS solution and a 2.45 mM potassium persulfate (Sigma Co., Fukushima, Japan) solution were mixed (v/v) to a final concentration and allowed to stand in the dark at room temperature (RT) for 24 h. Afterward, distilled water was added to dilute the solution until the absorbance at 732 nm reached 0.70 (±0.02). Then, 990 μL of this diluted ABTS solution was mixed with 10 μL of the sample solution and incubated at RT for 1 min. The absorbance was measured at 732 nm (Figure 1).

MC1R mRNA = assay: RT-PCR of MC1R mRNA in α-MSH-stimulated B16F10 cells; assay type: cell-based, mouse; details: 0.1, 1, and 10 μM; α-MSH 200 nM; normalized to GAPDH
Description: as §1, §2

[7] = previous research; cited from earlier work
Excerpt: (§4) This study aims to evaluate the antioxidant and skin-whitening effects of this novel decapeptide (DP) through in vitro and in silico analyses and to establish its potential as a new skin-whitening agent.

tyrosinase = details: previous research; cited from earlier work
Excerpt: as §4

Sequence: KGYSSYICDK [DP]
- MITF mRNA level (MITF mRNA): dose-dependent and significant decrease
- Cell viability of H2O2-treated HaCaT cells (HaCaT cells [1]): enhanced cell viability in a dose-dependent manner
- Tyrosinase inhibitory activity (mushroom tyrosinase; 62.5 μM): 7.05%
- Tyrosinase inhibitory activity (mushroom tyrosinase; 125 μM): 19.62%
- Tyrosinase inhibitory activity (mushroom tyrosinase; 250 μM): 26.29%
- Tyrosinase inhibitory activity (mushroom tyrosinase; 500 μM): 62.67%
- Tyrosinase inhibitory activity (mushroom tyrosinase; 1000 μM): 84.38%
- Melanin content (B16F10 melanoma cells [2]; 0.1 μM): 120.32%
- Melanin content (B16F10 melanoma cells [2]; 1 μM): 105.24%
- Melanin content (B16F10 melanoma cells [2]; 10 μM): 83.21%
- Melanin formation, morphological observation (B16F10 melanoma cells [2]; starting from 0.1 μM, α-MSH 200 nM, 200× magnification): melanin formation was inhibited starting from the 0.1 μM concentration
- ROS levels in H2O2-treated HaCaT cells (HaCaT cells [3]): significantly reduced
- Tyrosinase mRNA level (tyrosinase mRNA): dose-dependent and significant decrease
- FRAP activity vs Vitamin C ([4]; 1000 μM, p < 0.05): significant activity at 1000 μM, comparable to Vitamin C
- FRAP activity, concentration dependence ([4]; FeSO4 equivalents): dose-dependent FRAP activity
- Cytotoxicity in B16F10 melanoma cells (B16F10 melanoma cells [5]): No cytotoxicity was observed
- ABTS radical scavenging, concentration dependence ([6]; 732 nm): concentration-dependent ABTS radical scavenging activity
- ABTS radical scavenging ([6]; concentrations above 20 μM, 732 nm): over 90%
- ABTS radical scavenging vs Vit. C ([6]; concentrations above 20 μM, p < 0.05): significantly outperforming Vit. C
- MC1R mRNA level (MC1R mRNA): dose-dependent and significant decrease
- Free radical scavenging activity [7]: free radical scavenging
- Tyrosinase inhibitory activity (tyrosinase): tyrosinase inhibitory activities
